From patent US20060040957A1, “BICYCLIC PYRIMIDINE MATRIX METALLOPROTEINASE INHIBITORS” (priority 2001, published 2006)
Where a name gives a salt, the structure may show the parent alone. Read-outs that look alike come from different tables or passages of the source.

How the values were obtained:
[1] = target: MMP-13CD (catalytic domain of collagenase 3) (Homo sapiens, UniProt P45452); assay: Thiopeptolide substrate hydrolysis assay, MMP-13CD; assay type: biochemical; conditions: thiopeptolide substrate, HEPES pH 7.0, 22° C.
Source text: (§1) Thiopeptolide substrates show virtually no decomposition or hydrolysis at or below neutral pH in the absence of a matrix metalloproteinase enzyme.

[2] = target: MMP-9FL (full length Gelatinase B) (Homo sapiens, UniProt P14780); assay: Thiopeptolide substrate hydrolysis assay, MMP-9FL; assay type: biochemical; conditions: HEPES pH 7.0, 22° C., read-out: IC50 (μM) Versus Certain MMPs: MMP-09 FL
Source text: (§2) The invention compounds of Formula I have been evaluated in standard assays for their ability to inhibit the catalytic activity of various MMP enzymes.
as §1
(§3) Several representative compounds have been evaluated for their ability to inhibit various matrix metalloproteinase enzymes.

[3] = target: MMP-14CD (catalytic domain of MMP-14) (Homo sapiens, UniProt P50281); assay: Thiopeptolide substrate hydrolysis assay, MMP-14CD; assay type: biochemical; conditions: HEPES pH 7.0, 22° C., read-out: IC50 (μM) Versus Certain MMPs: MMP-14 CD
Source text: as §2, §1, §3

[4] = target: T1, MMP-7FL (full length matrilysin) (Homo sapiens, UniProt P09237); assay: Thiopeptolide substrate hydrolysis assay, MMP-7FL; assay type: biochemical; conditions: HEPES pH 7.0, 22° C., read-out: IC50 (μM) Versus Certain MMPs: MMP-07 FL
T1 sequence (P09237 95-267): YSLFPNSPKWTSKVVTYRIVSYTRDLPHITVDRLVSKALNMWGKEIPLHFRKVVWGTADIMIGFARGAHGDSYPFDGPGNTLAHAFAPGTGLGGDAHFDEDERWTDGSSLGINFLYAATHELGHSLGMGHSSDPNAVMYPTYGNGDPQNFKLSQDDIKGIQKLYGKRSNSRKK
Source text: as §2, §1, §3

[5] = target: T2, MMP-2FL (full length Gelatinase A) (Homo sapiens, UniProt P08253); assay: Thiopeptolide substrate hydrolysis assay, MMP-2FL; assay type: biochemical; conditions: HEPES pH 7.0, 22° C., read-out: IC50 (μM) Versus Certain MMPs: MMP-02 FL
T2 sequence (P08253 110-660): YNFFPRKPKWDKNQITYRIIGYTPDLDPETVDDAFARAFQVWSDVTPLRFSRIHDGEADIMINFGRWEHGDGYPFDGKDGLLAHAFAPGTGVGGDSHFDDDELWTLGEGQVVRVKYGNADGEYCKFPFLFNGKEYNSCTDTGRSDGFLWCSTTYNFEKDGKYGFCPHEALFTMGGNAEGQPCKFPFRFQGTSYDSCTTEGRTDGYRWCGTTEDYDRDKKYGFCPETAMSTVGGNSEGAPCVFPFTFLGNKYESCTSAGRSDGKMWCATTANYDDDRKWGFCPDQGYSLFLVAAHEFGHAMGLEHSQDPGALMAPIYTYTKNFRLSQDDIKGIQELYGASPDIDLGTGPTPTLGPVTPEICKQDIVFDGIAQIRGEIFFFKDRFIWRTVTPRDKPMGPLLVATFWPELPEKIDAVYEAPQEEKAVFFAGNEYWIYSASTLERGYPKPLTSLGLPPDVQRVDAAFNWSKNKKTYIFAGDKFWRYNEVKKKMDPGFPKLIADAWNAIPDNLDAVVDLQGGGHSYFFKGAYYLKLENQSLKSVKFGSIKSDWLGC
Source text: as §2, §1, §3

[6] = read-out: IC50 (μM) Versus Certain MMPs: MMP-13 CD

Sequence of MMP-9FL (full length Gelatinase B) (P14780 94-707, species assumed): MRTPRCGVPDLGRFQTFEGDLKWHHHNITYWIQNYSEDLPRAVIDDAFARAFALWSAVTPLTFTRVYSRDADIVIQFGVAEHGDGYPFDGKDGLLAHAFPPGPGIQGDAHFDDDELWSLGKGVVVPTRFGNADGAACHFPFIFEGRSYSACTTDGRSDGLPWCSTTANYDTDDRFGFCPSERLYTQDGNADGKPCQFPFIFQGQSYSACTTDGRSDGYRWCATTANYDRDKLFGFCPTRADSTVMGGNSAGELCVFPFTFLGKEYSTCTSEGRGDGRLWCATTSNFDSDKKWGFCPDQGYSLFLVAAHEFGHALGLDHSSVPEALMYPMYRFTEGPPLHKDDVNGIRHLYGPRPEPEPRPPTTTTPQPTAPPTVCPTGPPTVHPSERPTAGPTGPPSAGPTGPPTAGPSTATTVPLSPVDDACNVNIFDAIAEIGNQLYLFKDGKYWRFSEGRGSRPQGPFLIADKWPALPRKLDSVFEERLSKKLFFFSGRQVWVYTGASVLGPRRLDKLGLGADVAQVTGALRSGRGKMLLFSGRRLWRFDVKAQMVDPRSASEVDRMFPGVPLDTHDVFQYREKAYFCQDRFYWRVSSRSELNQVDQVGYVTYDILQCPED

Row | melting point | IC50 [1, 6] | IC50 [2] | IC50 [3] | IC50 [4] | IC50 [5] | IC50 ([1]; IC50 (μM) Versus Certain MMPs: MMP-13 CD) | SMILES
1 | > 210 °C | – | – | – | – | – | – | O=C(NCc1ccccc1)c1cn2c(=O)n(Cc3ccncc3)c(=O)cc2s1 (as salt: hydrochloride) (hydrate or solvate) [Example 15, 6-(4-Pyridylmethyl)-5,7-dioxo-6,7-dihydro-5H-thiazolo[3,2-c]pyrimidine-2-carboxylic acid benzylamide hydrochloride]
2 | 152 to 153.5 °C | > 100 µM | – | – | – | – | – | O=c1cc2sccn2c(=O)n1Cc1ccc(Cl)cc1 [6-(4-Chlorobenzyl)-thiazolo[3,2-c]pyrimidine-5,7-dione]
3 | 204 to 207 °C (dec.) | – | > 30 µM | > 30 µM | > 30 µM | > 30 µM | – | O=C(NCc1ccccc1)c1cn2c(=O)n(C(=O)c3ccccc3)c(=O)cc2s1 [Example 11, 6-Benzoyl-5,7-dioxo-6,7-dihydro-5H-thiazolo[3,2-c]pyrimidine-2-carboxylic acid benzylamide]
4 | 216 to 217 °C | 0.293 µM | > 30 µM | > 30 µM | 20 µM | > 100 µM | – | O=C(NCc1ccccc1)c1cn2c(=O)n(Cc3ccc(Cl)c(Cl)c3)c(=O)cc2s1 [Example 12, 6-(3,4-Dichlorobenzyl)-5,7-dioxo-6,7-dihydro-5H-thiazolo[3,2-c]pyrimidine-2-carboxylic acid benzylamide]
5 | > 220 °C | – | > 100 µM | > 100 µM | > 100 µM | > 100 µM | – | O=C(NCc1ccccc1)c1cn2c(=O)n(Cc3ccc(Cl)cc3)c(=O)cc2s1 [Example 13, 6-(4-Chlorobenzyl)-5,7-dioxo-6,7-dihydro-5H-thiazolo[3,2-c]pyrimidine-2-carboxylic acid benzylamide]
6 | 218 to 219 °C | – | > 30 µM | > 100 µM | 25 µM | > 30 µM | – | O=C(NCc1ccc(Cl)c(Cl)c1)c1cn2c(=O)n(Cc3ccc(Cl)cc3)c(=O)cc2s1 [Example 14, 6-(4-Chlorobenzyl)-5,7-dioxo-6,7-dihydro-5H-thiazolo[3,2-c]pyrimidine-2-carboxylic acid 3,4-dichlorobenzylamide]
7 | 176 to 178 °C | – | > 100 µM | > 30 µM | > 30 µM | > 100 µM | – | Cc1c(=O)n(Cc2ccccc2)c(=O)n2cc(C(=O)NCc3ccccc3)sc12 [Example 16, 6-Benzyl-8-methyl-5,7-dioxo-6,7-dihydro-5H-thiazolo[3,2-c]pyrimidine-2-carboxylic acid benzylamide]
8 | 160 to 162 °C | – | > 30 µM | > 30 µM | > 30 µM | > 30 µM | – | COc1ccc(CNC(=O)c2cn3c(=O)n(Cc4ccccc4)c(=O)c(C)c3s2)cc1 [Example 17, 6-Benzyl-8-methyl-5,7-dioxo-6,7-dihydro-5H-thiazolo[3,2-c]pyrimidine-2-carboxylic acid 4-methoxybenzylamide]
9 | 180 to 182 °C | – | > 30 µM | > 30 µM | > 30 µM | > 30 µM | – | Cc1c(=O)n(Cc2ccccc2)c(=O)n2cc(C(=O)NCc3ccc(Cl)c(Cl)c3)sc12 [Example 18, 6-Benzyl-8-methyl-5,7-dioxo-6,7-dihydro-5H-thiazolo[3,2-c]pyrimidine-2-carboxylic acid 3,4-dichlorobenzylamide]
10 | 189 to 191 °C | – | – | – | – | – | 23 µM | Cc1c(=O)n(Cc2ccccc2)c(=O)n2cc(C(=O)NCc3ccc4[nH]ccc4c3)sc12 [Example 34, 6-Benzyl-8-methyl-5,7-dioxo-6,7-dihydro-5H-thiazolo[3,2-c]pyrimidine-2-carboxylic acid(1H-indol-5-ylmethyl)-amide]
11 | > 230 °C | > 100 µM | – | – | – | – | – | Cc1c(=O)[nH]c(=O)n2ccsc12 [Example 53, 8-Methyl-thiazolo[3,2-c]pyrimidine-5,7-dione]
12 | > 205 °C | – | – | – | – | – | – | Cc1c(=O)[nH]c(=O)n2cc(C(=O)O)sc12 [Example 54, 8-Methyl-5,7-dioxo-6,7-dihydro-5H-thiazolo[3,2-c]pyrimidine-2-carboxylic acid]
13 | > 210 °C | – | – | – | – | – | – | COc1ccc(CNC(=O)c2cn3c(=O)n(Cc4ccc(C(=O)O)cc4)c(=O)c(C)c3s2)cc1 [Example 55, 4-[2-(4-Methoxy-benzylcarbamoyl)-8-methyl-5,7-dioxo-7H-thiazolo[3,2-c]pyrimidin-6-ylmethyl]-benzoic acid]
14 | 176 to 178 °C | – | > 30 µM | > 30 µM | 26 µM | > 30 µM | – | COC(=O)c1ccc(Cn2c(=O)c(C)c3sc(C(=O)NCc4ccc(F)cc4)cn3c2=O)cc1Cl [Example 65, 2-Chloro-4-[2-(4-fluoro-benzylcarbamoyl)-8-methyl-5,7-dioxo-7H-thiazolo[3,2-c]pyrimidin-6-ylmethyl]-benzoic acid methyl ester]
15 | 179 to 180 °C | – | > 100 µM | > 100 µM | > 100 µM | > 100 µM | – | COC(=O)c1ccc(Cn2c(=O)c(C)c3sc(C(=O)NCc4ccc(F)cc4)cn3c2=O)cc1C [Example 68, 4-[2-(4-Fluoro-benzylcarbamoyl)-8-methyl-5,7-dioxo-7H-thiazolo[3,2-c]pyrimidin-6-ylmethyl]-2-methyl-benzoic acid methyl ester]
16 | 206 to 207 °C | – | – | – | – | – | – | COc1ccc(CNC(=O)c2cn3c(=O)n(Cc4ccc(Cl)c(Cl)c4)c(=O)cc3s2)cc1 [Example 102, 6-(3,4-Dichloro-benzyl)-5,7-dioxo-6,7-dihydro-5H-thiazolo[3,2-c]pyrimidine-2-carboxylic acid 4-methoxy-benzylamide]
17 | 163 to 165 °C | 0.0106 µM | > 100 µM | > 100 µM | > 100 µM | 65 µM | – | COC(=O)c1ccc(Cn2c(=O)c(C)c3sc(C(=O)NCc4ccc(OC)cc4)cn3c2=O)cc1 [Example 103, 4-[2-(4-Methoxy-benzylcarbamoyl)-8-methyl-5,7-dioxo-7H-thiazolo[3,2-c]pyrimidin-6-ylmethyl]-benzoic acid methyl ester]
18 | 163 to 165 °C | – | – | – | – | – | – | Cc1c(=O)n(Cc2ccc(C(=O)OC(C)(C)C)cc2)c(=O)n2ccsc12 [Example 104, 4-(8-Methyl-5,7-dioxo-7H-thiazolo[3,2-c]pyrimidin-6-ylmethyl)-benzoic acid tert-butyl ester]
19 | 209 to 211 °C | – | > 30 µM | > 30 µM | 27 µM | > 30 µM | – | COC(=O)c1ccc(Cn2c(=O)c(C)c3sc(C(=O)NCc4cccc(F)c4)cn3c2=O)cc1 [Example 105, 4-[2-(3-Fluoro-benzylcarbamoyl)-8-methyl-5,7-dioxo-7H-thiazolo[3,2-c]pyrimidin-6-ylmethyl]-benzoic acid methyl ester]
20 | > 215 °C | – | > 100 µM | > 100 µM | > 30 µM | > 30 µM | – | COC(=O)c1ccc(Cn2c(=O)c(C)c3sc(C(=O)NCc4ccc(F)cc4)cn3c2=O)cc1 [Example 106, 4-[2-(4-Fluoro-benzylcarbamoyl)-8-methyl-5,7-dioxo-7H-thiazolo[3,2-c]pyrimidin-6-ylmethyl]-benzoic acid methyl ester]
21 | > 220 °C | – | > 30 µM | > 30 µM | > 30 µM | > 30 µM | – | Cc1c(=O)n(Cc2ccc(C#N)cc2)c(=O)n2cc(C(=O)NCc3ccc(F)cc3)sc12 [Example 107, 6-(4-Cyano-benzyl)-8-methyl-5,7-dioxo-6,7-dihydro-5H-thiazolo[3,2-c]pyrimidine-2-carboxylic acid 4-fluoro-benzylamide]
